Test results as given in patent publication US11608341B2, “Substituted tetrahydropyrazolo[3,4-d]pyrimidines and tetrahydropyrazolo[4,3-d]pyrimidines as C5A receptor modulators” (Idorsia Pharmaceuticals Ltd., priority 2018, dated 2023).

target: T1, C5AR1 (Homo sapiens, UniProt P21730); test: In vitro assay: antagonism of C5a-induced beta-arrestin recruitment (PathHunter) in CHO-K1 C5AR1 beta-arrestin cell line; type: cell-based; conditions: antagonistic activity, 1-10 nM C5a agonist, geometric mean where several measurements, read-out: C5aR IC50
T1 construct: host or cells: CHO-K1
T1 sequence (P21730 1-350): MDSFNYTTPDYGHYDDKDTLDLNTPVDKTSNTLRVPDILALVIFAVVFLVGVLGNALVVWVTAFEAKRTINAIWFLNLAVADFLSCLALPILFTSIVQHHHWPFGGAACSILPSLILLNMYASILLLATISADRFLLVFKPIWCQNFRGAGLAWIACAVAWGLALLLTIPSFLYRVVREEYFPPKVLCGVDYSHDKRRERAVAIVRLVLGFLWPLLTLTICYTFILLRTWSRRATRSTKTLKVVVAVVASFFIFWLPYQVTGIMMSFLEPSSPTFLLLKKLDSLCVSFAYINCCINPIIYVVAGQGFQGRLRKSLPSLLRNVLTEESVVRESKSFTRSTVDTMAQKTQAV
In short: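 Antagonist or DMSO added first, then C5a (1-10 nM, added at 6-fold end concentration), 1.5 h at 37 °C. PathHunter detection reagent was added for 45 min at RT before plate reading. IC50s come from antagonist serial dilutions in nmol/l and are geometric means of several measurements.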

Row | Structure (SMILES) | IC50 [nM]
1 | Cn1cc2c(n1)N(Cc1ccccc1C(F)(F)F)C(=O)N(C1CCN(c3c(F)cccc3Cl)CC1)C2 [Example 272] | 18
2 | Cn1cc2c(n1)N(Cc1ccccc1C(F)(F)F)C(=O)N(C1CCN(c3c(F)cccc3F)CC1)C2 [Example 273] | 13
3 | Cn1cc2c(n1)N(Cc1ccccc1C1CC1)C(=O)N(C1CCN(c3c(F)cccc3OC(F)(F)F)CC1)C2 [Example 281] | 17
4 | COc1nccc(C)c1N1CCC(N2Cc3cn(C)nc3N(Cc3ccccc3C3CC3)C2=O)CC1 [Example 283] | 8
5 | Cn1cc2c(n1)N(Cc1ccccc1C1CC1)C(=O)N(C1CCN(c3c(F)cccc3Cl)CC1)C2 [Example 284] | 9
6 | Cn1cc2c(n1)N(Cc1ccccc1C1CC1)C(=O)N(C1CCN(c3c(F)cccc3F)CC1)C2 [Example 285] | 9
7 | Cc1cccc(F)c1N1CCC(N2C(=O)N(Cc3ccccc3C(F)(F)F)c3cn(C4CCCCO4)nc3C2C)CC1 (centres unmarked) [Example 294] | 56
8 | CCc1cccc(F)c1N1CCC(N2Cc3cn(C)nc3N(Cc3ccccc3C(F)(F)F)C2=O)CC1 [Example 299] | 402
9 | Cn1cc2c(n1)N(Cc1ccccc1C(F)(F)F)C(=O)N(C1CCN(c3c(F)cccc3C(F)F)CC1)C2 [Example 300] | 29
10 | Cn1cc2c(n1)CN(C1CCN(c3c(F)cccc3C(F)F)CC1)C(=O)N2Cc1ccccc1C(F)(F)F [Example 301] | 69
11 | Cn1cc2c(n1)CN(C1CCN(c3c(F)cccc3Cl)CC1)C(=O)N2Cc1ccccc1C(F)(F)F [Example 302] | 48
12 | Cn1cc2c(n1)N(Cc1ccccc1C(F)(F)F)C(=O)N(C1CCN(c3c(F)cccc3C3CC3)CC1)C2 [Example 303] | 10
13 | Cn1cc2c(n1)CN(C1CCN(c3c(F)cccc3C3CC3)CC1)C(=O)N2Cc1ccccc1C(F)(F)F [Example 304] | 35
14 | Cn1cc2c(n1)N(Cc1ccccc1C1CC1)C(=O)N(C1CCN(c3c(F)cccc3C3CC3)CC1)C2 [Example 307] | 30
15 | Cn1cc2c(n1)N(Cc1ccccc1C1CC1)C(=O)N(C1CCN(c3c(F)cccc3C(F)F)CC1)C2 [Example 308] | 22
16 | Cc1cccc(F)c1N1CCC(N2C(=O)N(Cc3ccccc3C(F)(F)F)c3nn(C4CCCCO4)cc3C2C)CC1 (centres unmarked) [Example 313] | 13
17 | CC1c2cn(C3CCCCO3)nc2N(Cc2ccccc2C(F)(F)F)C(=O)N1C1CCN(c2c(F)cccc2C(F)F)CC1 (centres unmarked) [Example 341] | 31
18 | CC1c2cn(C3CCCCO3)nc2N(Cc2ccccc2C(F)(F)F)C(=O)N1C1CCN(c2c(F)cccc2Cl)CC1 (centres unmarked) [Example 342] | 24
19 | COc1nccc(C(F)F)c1N1CCC(N2C(=O)N(Cc3ccccc3C(F)(F)F)c3nn(C4CCCCO4)cc3C2C)CC1 (centres unmarked) [Example 343] | 57
20 | CC1c2cn(C3CCCCO3)nc2N(Cc2ccccc2C2CC2)C(=O)N1C1CCN(c2c(F)cccc2Cl)CC1 (centres unmarked) [Example 365] | 45
